Like-named read-outs stand apart in the source and are kept apart here. Each block holds one molecule with its values, some of them ahead of it.
Target: T1, NKCC1 (Homo sapiens, UniProt P55011)
T1 construct: expressed in transfected cells; host or cells: HEK293
T1 sequence (P55011 1-1212): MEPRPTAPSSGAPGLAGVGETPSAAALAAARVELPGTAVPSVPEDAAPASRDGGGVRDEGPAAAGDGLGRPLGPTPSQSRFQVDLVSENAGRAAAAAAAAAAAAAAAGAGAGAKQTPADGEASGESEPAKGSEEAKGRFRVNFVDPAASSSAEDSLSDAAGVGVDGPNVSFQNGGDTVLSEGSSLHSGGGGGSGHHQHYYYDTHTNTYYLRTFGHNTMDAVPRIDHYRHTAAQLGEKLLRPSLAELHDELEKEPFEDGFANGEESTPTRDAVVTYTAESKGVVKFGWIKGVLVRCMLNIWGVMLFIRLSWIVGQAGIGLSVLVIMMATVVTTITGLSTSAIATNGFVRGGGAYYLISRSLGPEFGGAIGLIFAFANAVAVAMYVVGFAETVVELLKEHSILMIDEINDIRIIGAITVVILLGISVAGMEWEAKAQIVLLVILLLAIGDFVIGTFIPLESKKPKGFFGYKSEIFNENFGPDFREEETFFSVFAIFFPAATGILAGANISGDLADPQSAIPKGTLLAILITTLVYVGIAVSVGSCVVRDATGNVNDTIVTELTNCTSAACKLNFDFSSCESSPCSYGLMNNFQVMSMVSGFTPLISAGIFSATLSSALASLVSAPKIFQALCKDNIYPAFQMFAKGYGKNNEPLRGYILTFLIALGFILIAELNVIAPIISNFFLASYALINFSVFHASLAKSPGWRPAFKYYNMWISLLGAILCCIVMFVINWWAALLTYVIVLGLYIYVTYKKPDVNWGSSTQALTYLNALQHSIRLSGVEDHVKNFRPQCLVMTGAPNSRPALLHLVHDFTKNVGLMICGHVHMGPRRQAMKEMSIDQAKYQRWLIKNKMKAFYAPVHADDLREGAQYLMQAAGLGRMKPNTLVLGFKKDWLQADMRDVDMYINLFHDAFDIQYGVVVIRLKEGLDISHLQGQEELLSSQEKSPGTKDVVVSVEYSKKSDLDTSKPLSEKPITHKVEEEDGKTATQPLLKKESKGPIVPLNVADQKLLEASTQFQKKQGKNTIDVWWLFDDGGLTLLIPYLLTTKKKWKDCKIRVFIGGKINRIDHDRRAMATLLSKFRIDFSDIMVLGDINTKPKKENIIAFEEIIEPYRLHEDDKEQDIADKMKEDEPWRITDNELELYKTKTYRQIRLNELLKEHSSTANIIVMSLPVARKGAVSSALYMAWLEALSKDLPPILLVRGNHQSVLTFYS
Assay: Chloride kinetic assay (Cl-sensitive YFP) in NKCC1-transfected HEK293 cells
Assay type: cell-based
Conditions: for inhibition at 10 µM / NKCC1 Inhibition % 10 μM HEK Chloride YFP assay: NKCC1-transfected HEK293; for inhibition at 10 µM: read-out: NKCC1 Inhibition % 10 μM HEK Chloride YFP assay
Method: FIG. 1: In vitro testing of the NKCC1 inhibitors in the chloride kinetic assay a) Example traces obtained in the chloride kinetic assay on HEK cells transfected with the YFP (mock) or with YFP and NKCC1. The arrow indicates the addition of NaCl (final concentration 74 mM) used to initiate the flux assay. b) Quantification of the effect of bumetanide (10 μM and 100 μM) or furosemide (10 μM and 100 μM) in the chloride kinetic assay on mock or NKCC1-transfected HEK293 cells. Data represents mean±sem from 5 independent experiments. c) Quantification of the effect of bumetanide and furosemide and 2 selected compounds (3.8, 3.17) in the chloride kinetic assay on NKCC1-transfected HEK293 cells. Data represents mean±sem from 5 independent experiments, and they are represented as % of the controls. *P<0.05, **P<0.01, ***P<0.001 Kruskal-Wallis Anova (Dunn's Post hoc Test); ###P<0.001 two-tailed unpaired Student t-test.
To screen in vitro the compounds efficiency in blocking NKCC1, a functional NKCC1 transporter assay was performed by measuring variation of Cl^− ion concentration in the cell through a Cl^− sensitive membrane-tagged yellow fluorescent protein (mbYFPQS, Addgene). mbYFPQS fluorescence is inversely dependent on the concentration of Cl^− inside the cell thus allowing an indirect estimation of the Cl^− transporter activity. In particular, HEK293 cells were transfected with NKCC1 or mock construct (control) together with the Cl^− sensitive YFP. After 2 DIV, the cells were treated with bumetanide and furosemide (as positive controls) or with each of the tested compounds of the invention in a Cl^− free medium. After 30 min, the inhibitory activity of the compounds was tested by monitoring fluorescence upon application of NaCl (FIG. 1a). Transported by NKCC1, Cl binds the YFP, leading to a fluorescence decrease. […] With the Cl kinetic assay, the NKCC1 inhibitory activity of the selected compounds was tested (FIG. 1c).

inhibition at 10 µM (Table 1): 8%
SMILES: CCCCNc1ccc(C(=O)O)cc1S(=O)(=O)NC [Compound 3.6, 4-(butylamino)-3-(methylsulfamoyl)benzoic acid]

NKCC1 Inhibition % 10 μM HEK Chloride YFP assay (Table 1): Inactive
NKCC1 Inhibition % 10 μM HEK Chloride YFP assay (Table 2): Inactive
SMILES: CCCCCCNc1ccc(C(=O)O)cc1S(=O)(=O)NC [Compound 3.7, 4-(hexylamino)-3-(methylsulfamoyl)benzoic acid]

inhibition at 10 µM (Table 1): 16%
SMILES: CCCCCCCCNc1ccc(C(=O)O)cc1S(=O)(=O)NC [Compound 3.8, 3-(methylsulfamoyl)-4-(octylamino)benzoic acid]

NKCC1 Inhibition % 10 μM HEK Chloride YFP assay (Table 1): Inactive
NKCC1 Inhibition % 10 μM HEK Chloride YFP assay (Table 2): Inactive
SMILES: CNS(=O)(=O)c1cc(C(=O)O)ccc1NCCC(C)(C)C [Compound 3.9, 4-(3,3-dimethylbutylamino)-3-(methylsulfamoyl)benzoic acid]

inhibition at 10 µM (Table 1): 9%
SMILES: CCCCNc1ccc(C(=O)O)cc1S(=O)(=O)N(C)C [Compound 3.11, 4-(butylamino)-3-(dimethylsulfamoyl)benzoic acid]

inhibition at 10 µM (Table 1): 8%
SMILES: CCCCCCNc1ccc(C(=O)O)cc1S(=O)(=O)N(C)C [Compound 3.12, 3-(dimethylsulfamoyl)-4-(hexylamino)benzoic acid]

NKCC1 Inhibition % 10 μM HEK Chloride YFP assay (Table 1): Inactive
NKCC1 Inhibition % 10 μM HEK Chloride YFP assay (Table 2): Inactive
SMILES: CCCCCCCCNc1ccc(C(=O)O)cc1S(=O)(=O)N(C)C [Compound 3.13, 3-(dimethylsulfamoyl)-4-(octylamino)benzoic acid]

NKCC1 Inhibition % 10 μM HEK Chloride YFP assay (Table 1): Inactive
NKCC1 Inhibition % 10 μM HEK Chloride YFP assay (Table 2): Inactive
SMILES: CN(C)S(=O)(=O)c1cc(C(=O)O)ccc1NCCC(C)(C)C [Compound 3.14, 4-(3,3-dimethylbutylamino)-3-(dimethylsulfamoyl)benzoic acid]

Continued, molecule first:

SMILES: CCCCNc1cc(C(=O)O)cc(S(N)(=O)=O)c1Oc1ccccc1 [Bumetanide, reference compound]
inhibition at 10 µM (Table 1): 54%
effect on decrease in fluorescence upon NaCl application in NKCC1-transfected cells (pre-incubation at 10 μM and 100 μM): significantly reduced

SMILES: CCCCNc1ccc([N+](=O)[O-])cc1S(N)(=O)=O [Compound 1.6, 2-(butylamino)-5-nitro-benzenesulfonamide]
inhibition at 10 µM (Table 1): 11%

SMILES: CCCCCCNc1ccc([N+](=O)[O-])cc1S(N)(=O)=O [Compound 1.7, 2-(hexylamino)-5-nitro-benzenesulfonamide]
inhibition at 10 µM (Table 1): 25%

SMILES: CCCCCCCCNc1ccc([N+](=O)[O-])cc1S(N)(=O)=O [Compound 1.8, 5-nitro-2-(octylamino)benzenesulfonamide]
inhibition at 10 µM (Table 1): 12%

SMILES: CC(C)(C)CCNc1ccc([N+](=O)[O-])cc1S(N)(=O)=O [Compound 1.9, 2-(3,3-dimethylbutylamino)-5-nitro-benzenesulfonamide]
inhibition at 10 µM (Table 1): 5%

SMILES: CCCCNc1ccc([N+](=O)[O-])cc1S(=O)(=O)NC [Compound 1.10, 2-(butylamino)-N-methyl-5-nitro-benzenesulfonamide]
NKCC1 Inhibition % 10 μM HEK Chloride YFP assay (Table 1): Inactive
NKCC1 Inhibition % 10 μM HEK Chloride YFP assay (Table 2): Inactive

SMILES: CCCCCCNc1ccc([N+](=O)[O-])cc1S(=O)(=O)NC [Compound 1.11, 2-(hexylamino)-N-methyl-5-nitro-benzenesulfonamide]
inhibition at 10 µM (Table 2): 3.4%

SMILES: CCCCCCCCNc1ccc([N+](=O)[O-])cc1S(=O)(=O)NC [Compound 1.12, N-methyl-5-nitro-2-(octylamino)benzenesulfonamide]
NKCC1 Inhibition % 10 μM HEK Chloride YFP assay (Table 1): Inactive
NKCC1 Inhibition % 10 μM HEK Chloride YFP assay (Table 2): Inactive

SMILES: CNS(=O)(=O)c1cc([N+](=O)[O-])ccc1NCCC(C)(C)C [Compound 1.13, 2-(3,3-dimethylbutylamino)-N-methyl-5-nitro-benzenesulfonamide]
inhibition at 10 µM (Table 1): 17%

SMILES: CCCCNc1ccc([N+](=O)[O-])cc1S(=O)(=O)N(C)C [Compound 1.14, 2-(butylamino)-N,N-dimethyl-5-nitro-benzenesulfonamide]
NKCC1 Inhibition % 10 μM HEK Chloride YFP assay (Table 1): Inactive
NKCC1 Inhibition % 10 μM HEK Chloride YFP assay (Table 2): Inactive

SMILES: CCCCCCNc1ccc([N+](=O)[O-])cc1S(=O)(=O)N(C)C [Compound 1.15, 2-(hexylamino)-N,N-dimethyl-5-nitro-benzenesulfonamide]
inhibition at 10 µM (Table 1): 16%

SMILES: CCCCCCCCNc1ccc([N+](=O)[O-])cc1S(=O)(=O)N(C)C [Compound 1.16, N,N-dimethyl-5-nitro-2-(octylamino)benzenesulfonamide]
NKCC1 Inhibition % 10 μM HEK Chloride YFP assay (Table 1): Inactive
NKCC1 Inhibition % 10 μM HEK Chloride YFP assay (Table 2): Inactive

SMILES: CN(C)S(=O)(=O)c1cc([N+](=O)[O-])ccc1NCCC(C)(C)C [Compound 1.17, 2-(3,3-dimethylbutylamino)-N,N-dimethyl-5-nitro-benzenesulfonamide]
NKCC1 Inhibition % 10 μM HEK Chloride YFP assay (Table 1): Inactive
NKCC1 Inhibition % 10 μM HEK Chloride YFP assay (Table 2): Inactive

SMILES: CCCCNc1cc(Cl)c(C(=O)O)cc1S(N)(=O)=O [Compound 2.2, 4-(butylamino)-2-chloro-5-sulfamoyl-benzoic acid]
inhibition at 10 µM (Table 1): 36%

SMILES: CCCCCCNc1cc(Cl)c(C(=O)O)cc1S(N)(=O)=O [Compound 2.3, 2-chloro-4-(hexylamino)-5-sulfamoyl-benzoic acid]
inhibition at 10 µM (Table 1): 10%

SMILES: CCCCCCCCNc1cc(Cl)c(C(=O)O)cc1S(N)(=O)=O [Compound 2.4, 2-chloro-4-(octylamino)-5-sulfamoyl-benzoic acid]
inhibition at 10 µM (Table 1): 14%

SMILES: CC(C)(C)CCNc1cc(Cl)c(C(=O)O)cc1S(N)(=O)=O [Compound 2.5, 2-chloro-4-(3,3-dimethylbutylamino)-5-sulfamoyl-benzoic acid]
NKCC1 Inhibition % 10 μM HEK Chloride YFP assay (Table 1): Inactive
NKCC1 Inhibition % 10 μM HEK Chloride YFP assay (Table 2): Inactive

SMILES: CCCCNc1ccc(C(=O)O)cc1S(N)(=O)=O [Compound 2.6, 4-(butylamino)-3-sulfamoyl-benzoic acid]
NKCC1 Inhibition % 10 μM HEK Chloride YFP assay (Table 1): Inactive
NKCC1 Inhibition % 10 μM HEK Chloride YFP assay (Table 2): Inactive

SMILES: CCCCCCNc1ccc(C(=O)O)cc1S(N)(=O)=O [Compound 2.7, 4-(hexylamino)-3-sulfamoyl-benzoic acid]
inhibition at 10 µM (Table 1): 4%

SMILES: CCCCCCCCNc1ccc(C(=O)O)cc1S(N)(=O)=O [Compound 2.8, 4-(octylamino)-3-sulfamoyl-benzoic acid]
inhibition at 10 µM (Table 1): 5%

SMILES: CC(C)(C)CCNc1ccc(C(=O)O)cc1S(N)(=O)=O [Compound 2.9, 4-(3,3-dimethylbutylamino)-3-sulfamoyl-benzoic acid]
inhibition at 10 µM (Table 1): 1%

Reference: patent US20220184008A1, “MODULATORS OF INTRACELLULAR CHLORIDE CONCENTRATION” (FONDAZIONE ISTITUTO ITALIANO DI TECNOLOGIA, priority 2019, published 2022)
